Drawing on ChEMBL document CHEMBL5154907, “Discovery and Anti-Inflammatory Activity Evaluation of a Novel CDK8 Inhibitor through Upregulation of IL-10 for the Treatment of Inflammatory Bowel Disease In Vivo” (J Med Chem, 2022), this text covers inhibition, Activity and MRT for one molecule.

Series [1] has as its target T1, Cyclin-dependent kinase 8 (Mus musculus) (UniProt Q8R3L8).
T1 sequence (whole entry): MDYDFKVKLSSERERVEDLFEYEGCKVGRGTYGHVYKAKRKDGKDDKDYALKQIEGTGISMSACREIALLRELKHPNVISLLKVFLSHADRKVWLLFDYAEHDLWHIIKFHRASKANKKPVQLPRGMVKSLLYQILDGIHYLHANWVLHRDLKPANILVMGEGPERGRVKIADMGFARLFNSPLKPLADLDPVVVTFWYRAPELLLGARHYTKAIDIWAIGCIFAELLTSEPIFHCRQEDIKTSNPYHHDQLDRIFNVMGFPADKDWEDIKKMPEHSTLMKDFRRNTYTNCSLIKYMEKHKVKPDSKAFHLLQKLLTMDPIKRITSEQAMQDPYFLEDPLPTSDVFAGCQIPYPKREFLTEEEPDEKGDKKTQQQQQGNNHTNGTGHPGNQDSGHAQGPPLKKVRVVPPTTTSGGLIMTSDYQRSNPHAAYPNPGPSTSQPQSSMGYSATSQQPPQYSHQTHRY
Briefly: Inhibition of CDK8 in R848-stimulated mouse BMDC cells assessed as downregulation of c-Jun phosphorylation at Ser243 at 1 to 4 uM treated for 2 hrs followed by R848 stimulation for 12 hrs by western blot analysis. In kind it is cell-based. As to conditions: dose 1-4 µM, time 14.0 hrs. A general note: In western blotting, separated proteins are transferred to a membrane and probed.

In series [2] the target is T2, Toll-like receptor 7 (Mus musculus) (UniProt P58681).
T2 sequence (whole entry): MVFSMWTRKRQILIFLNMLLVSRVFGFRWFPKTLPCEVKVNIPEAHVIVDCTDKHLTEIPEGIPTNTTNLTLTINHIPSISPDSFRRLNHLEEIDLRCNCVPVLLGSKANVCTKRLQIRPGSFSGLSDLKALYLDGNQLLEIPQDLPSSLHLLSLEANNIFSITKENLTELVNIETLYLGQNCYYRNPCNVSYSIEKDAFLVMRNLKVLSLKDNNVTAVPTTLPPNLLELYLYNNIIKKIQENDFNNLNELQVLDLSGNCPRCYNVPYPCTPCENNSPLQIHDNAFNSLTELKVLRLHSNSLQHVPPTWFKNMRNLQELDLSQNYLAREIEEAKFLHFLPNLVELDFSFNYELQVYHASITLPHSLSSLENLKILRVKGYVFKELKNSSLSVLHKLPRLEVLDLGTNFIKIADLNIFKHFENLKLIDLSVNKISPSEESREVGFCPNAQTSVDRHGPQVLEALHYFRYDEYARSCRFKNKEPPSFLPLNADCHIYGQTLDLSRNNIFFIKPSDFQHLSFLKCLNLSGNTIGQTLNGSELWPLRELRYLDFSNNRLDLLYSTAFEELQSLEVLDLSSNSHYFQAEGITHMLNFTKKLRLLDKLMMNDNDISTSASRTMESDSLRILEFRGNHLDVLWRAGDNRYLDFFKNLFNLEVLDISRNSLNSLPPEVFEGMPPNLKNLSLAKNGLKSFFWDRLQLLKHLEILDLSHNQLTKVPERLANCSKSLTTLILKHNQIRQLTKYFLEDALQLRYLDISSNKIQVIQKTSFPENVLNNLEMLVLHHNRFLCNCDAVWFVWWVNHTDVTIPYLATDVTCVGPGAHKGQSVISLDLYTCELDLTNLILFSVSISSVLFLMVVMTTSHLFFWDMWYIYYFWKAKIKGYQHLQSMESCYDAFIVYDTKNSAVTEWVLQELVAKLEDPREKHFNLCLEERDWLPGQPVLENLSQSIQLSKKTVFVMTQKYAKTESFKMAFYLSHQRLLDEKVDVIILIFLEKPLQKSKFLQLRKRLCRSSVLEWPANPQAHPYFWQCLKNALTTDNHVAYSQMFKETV
Briefly: Inhibition of TLR7 expression in R848-stimulated mouse BMDC cells at 1 to 4 uM treated for 2 hrs followed by R848 stimulation for 12 hrs by western blot analysis. As to conditions: dose 1-4 µM, time 14.0 hrs, DDE = dose-dependent effect. In kind it is cell-based.

For series [3], the target named is Myeloid differentiation primary response protein MyD88 (Mus musculus) (UniProt P22366). Briefly: Inhibition of MyD88 expression in R848-stimulated mouse BMDC cells at 1 to 4 uM treated for 2 hrs followed by R848 stimulation for 12 hrs by western blot analysis. In kind it is cell-based. As to conditions: dose 1-4 µM, time 14.0 hrs, DDE = dose-dependent effect.
Sequence of Myeloid differentiation primary response protein MyD88 (Mus musculus) (P22366 whole entry): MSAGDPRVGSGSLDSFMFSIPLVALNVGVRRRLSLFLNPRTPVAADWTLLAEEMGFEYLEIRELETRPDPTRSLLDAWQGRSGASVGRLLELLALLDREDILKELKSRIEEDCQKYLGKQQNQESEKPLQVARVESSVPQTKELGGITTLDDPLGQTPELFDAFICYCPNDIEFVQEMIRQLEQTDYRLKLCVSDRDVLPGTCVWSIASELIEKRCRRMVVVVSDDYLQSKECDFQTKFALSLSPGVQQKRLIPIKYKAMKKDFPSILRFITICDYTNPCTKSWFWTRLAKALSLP
In series [4] the test system is BMDC. Briefly: Inhibition of NF-kappa-B phosphorylation in R848-stimulated mouse BMDC cells at 1 to 4 uM treated for 2 hrs followed by R848 stimulation for 12 hrs by western blot analysis. In kind it is cell-based. As to conditions: dose 1-4 µM, time 14.0 hrs.
Series [5] deals with BMDC. Briefly: Inhibition of ERK phosphorylation in R848-stimulated mouse BMDC cells at 1 to 4 uM treated for 2 hrs followed by R848 stimulation for 12 hrs by western blot analysis. Type of series: cell-based. As to conditions: dose 1-4 µM, time 14.0 hrs.
The nature of series [6]: Acute toxicity in 12 hr fasted ICR mouse assessed as effect on liver at 2000 mg/kg, po measured after 7 days by hematoxylin and eosin staining based histopathological analysis. As to conditions: in vivo, 168 h, time 7 day. In kind it is organism-based.
Series [7] is described as follows: MRT in Sprague-Dawley rat at 5 mg/kg, iv measured for 3 to 1440 mins by HPLC analysis. As to conditions: in vivo, time 3-1440 min. In kind it is ADME, organism-based.

Structures are written as SMILES. The source made the active and inactive calls. The rule behind the calls is not given here.

Regarding `CCc1ccccc1NC(=O)c1cncc(-c2ccc(C(=O)N3CCNCC3)cc2)c1`, the inhibition result (in series [1]; with BMDC [4]; in the series with BMDC [5]) was “Active” each time. The inhibition result in series [2] and in series [3] was “Dde” throughout. Further, in series [6], the Activity result is given as “Non-Toxic”. For the same molecule, the MRT in series [7] came to 1.97 h.

In general, MRT refers to a mean duration of stay, worked out from the concentration-time curve.
